Measured values taken from patent US20230278972A1, “SUBSTITUTED HALOALKYL SULFONANILIDE HERBICIDES” (FMC Corporation, priority 2020, published 2023).

Key:
Type in all cases: in vivo
[1] = tested on: ragweed (common ragweed, Ambrosia artemisiifolia); assay: Test A preemergence, ragweed; settings: Preemergence; for Plant response rating, Ragweed: 0 to 100 scale (0 no effect, 100 complete control)
Summary of the method: (§1)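 Test chemicals, formulated in a non-phytotoxic solvent mixture with surfactant, were sprayed postemergence on plants 2 to 10 cm tall at the one- to two-leaf stage. Preemergence treatment was a directed soil spray onto freshly seeded pots. Both used a loam soil and sand blend.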

[2] = tested on: blackgrass (Alopecurus myosuroides); assay: Test A postemergence, blackgrass; settings: Postemergence, 0 to 100 scale (0 no effect, 100 complete control)
Summary of the method: as §1

[3] = tested on: galium (catchweed bedstraw, Galium aparine); assay: Test A postemergence, galium; settings: Postemergence, 0 to 100 scale (0 no effect, 100 complete control)
Summary of the method: (§2)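 After sowing into a sand-amended loam, pots for the preemergence test were treated by spraying directly onto soil. In parallel, seedlings at the one- to two-leaf stage and 2 to 10 cm tall were treated postemergence with the identical surfactant-containing formulation.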

kochia (Bassia scoparia) [4] = assay: Test A postemergence, kochia; settings: Postemergence, 0 to 100 scale (0 no effect, 100 complete control)
Summary of the method: as §1

[5] = tested on: wheat (Triticum aestivum); assay: Test A postemergence, wheat; settings: Postemergence, 0 to 100 scale (0 no effect, 100 complete control)
Summary of the method: as §2

[6] = tested on: pigweed (Amaranthus retroflexus); assay: Test A postemergence, pigweed; settings: Postemergence, 0 to 100 scale (0 no effect, 100 complete control)
Summary of the method: as §1

[7] = tested on: Ryegrass, Italian (Italian ryegrass, Lolium multiflorum); assay: Test A postemergence, Ryegrass, Italian; settings: Postemergence, 0 to 100 scale (0 no effect, 100 complete control)
Summary of the method: as §1

[8] = tested on: Foxtail, Giant (giant foxtail, Setaria faberi); assay: Test A preemergence, Foxtail, Giant; settings: Preemergence; for Plant response rating, Foxtail, Giant: 0 to 100 scale (0 no effect, 100 complete control)
Summary of the method: as §1

[9] = tested on: barnyardgrass (Echinochloa crus-galli); assay: Test A preemergence, barnyardgrass; settings: Preemergence; for Plant response rating, Barnyardgrass: 0 to 100 scale (0 no effect, 100 complete control)
Summary of the method: as §1

corn (Zea mays) = assay: Test A postemergence, corn; settings: Postemergence, 0 to 100 scale (0 no effect, 100 complete control)
Summary of the method: as §1

[10] = tested on: barnyardgrass (Echinochloa crus-galli); assay: Test A postemergence, barnyardgrass; settings: Postemergence, 0 to 100 scale (0 no effect, 100 complete control)
Summary of the method: as §2

[11] = tested on: Ryegrass, Italian (Italian ryegrass, Lolium multiflorum); assay: Test A preemergence, Ryegrass, Italian; settings: Preemergence; for Plant response rating, Ryegrass, Italian: 0 to 100 scale (0 no effect, 100 complete control)
Summary of the method: as §1

[12] = tested on: pigweed (Amaranthus retroflexus); assay: Test A preemergence, pigweed; settings: for Plant response rating, Pigweed: 0 to 100 scale (0 no effect, 100 complete control)
Summary of the method: as §2

[13] = tested on: Foxtail, Giant (giant foxtail, Setaria faberi); assay: Test A postemergence, Foxtail, Giant; settings: Postemergence, 0 to 100 scale (0 no effect, 100 complete control)
Summary of the method: as §1

kochia (Bassia scoparia) [14] = assay: Test A preemergence, kochia; settings: Preemergence; for Plant response rating, Kochia: 0 to 100 scale (0 no effect, 100 complete control)
Summary of the method: as §1

[15] = tested on: ragweed (common ragweed, Ambrosia artemisiifolia); assay: Test A postemergence, ragweed; settings: Postemergence, 0 to 100 scale (0 no effect, 100 complete control)
Summary of the method: as §1

[16] = 125 g ai/ha, visual injury, approx. 10 days
[17] = 500 g ai/ha, visual injury vs untreated controls after approx. 10 days
[18] = 500 g ai/ha, visual injury on 0 to 100 scale (0 no effect, 100 complete control), approximately 10 days
[19] = 500 g ai/ha, visual injury approx. 10 days
[20] = 1000 g ai/ha, visual injury, approx. 10 days

Q: Which results are given for `CCN(CC)C(=O)c1cc(NS(=O)(=O)C(F)(F)F)c(C)cc1C` [Compound 188]?
A: Plant response rating, Ragweed [1, 16]: 40; Plant response rating, Ragweed ([1]; 500 g ai/ha): 50; Plant response rating, Blackgrass ([2]; 125 g ai/ha): 0; Blackgrass plant response rating [2, 17]: 0; Plant response rating, Galium ([3]; 125 g ai/ha): 40; Galium plant response rating [3, 17]: 50; Plant response rating, Kochia (kochia (Bassia scoparia) [4]; 125 g ai/ha): 0; Kochia plant response rating (kochia (Bassia scoparia) [4]; [17]): 0; Plant response rating, Wheat ([5]; 125 g ai/ha): 40; Wheat plant response rating [5, 17]: 70; Plant response rating, Pigweed ([6]; 125 g ai/ha): 20; Pigweed plant response rating [6, 17]: 80; Plant response rating, Ryegrass, Italian ([7]; 125 g ai/ha): 0; Ryegrass, Italian plant response rating [7, 17]: 40; Plant response rating, Foxtail, Giant [8, 16]: 0; Plant response rating, Foxtail, Giant ([8]; 500 g ai/ha): 100; Plant response rating, Barnyardgrass [9, 16]: 60; Plant response rating, Barnyardgrass ([9]; 500 g ai/ha): 90; Plant response rating, Corn (corn (Zea mays); 125 g ai/ha): 10; Corn plant response rating (corn (Zea mays); [17]): 30; Plant response rating, Barnyardgrass ([10]; 125 g ai/ha): 10; Barnyardgrass plant response rating [10, 17]: 70; Plant response rating, Ryegrass, Italian [11, 16]: 50; Plant response rating, Ryegrass, Italian ([11]; 500 g ai/ha): 100; Plant response rating, Pigweed [12, 16]: 50; Plant response rating, Pigweed ([12]; 500 g ai/ha): 90; Plant response rating, Foxtail, Giant ([13]; 125 g ai/ha): 0; Foxtail, Giant plant response rating [13, 17]: 20; Plant response rating, Kochia (kochia (Bassia scoparia) [14]; [16]): 20; Plant response rating, Kochia (kochia (Bassia scoparia) [14]; 500 g ai/ha): 60; Plant response rating, Ragweed ([15]; 125 g ai/ha): 20; Ragweed plant response rating [15, 17]: 70

Q: Which results are given for `Cc1cc(Cl)c(C(=O)N(C)C)cc1NS(=O)(=O)C(F)(F)F` [Compound 251]?
A: Plant response rating, Ragweed [1, 16]: 80; Ragweed plant response rating [1, 18]: 80; Plant response rating, Blackgrass ([2]; 125 g ai/ha): 20; Plant response rating, Blackgrass [2, 19]: 60; Plant response rating, Galium ([3]; 125 g ai/ha): 80; Plant response rating, Galium [3, 19]: 80; Plant response rating, Kochia (kochia (Bassia scoparia) [4]; 125 g ai/ha): 40; Plant response rating, Kochia (kochia (Bassia scoparia) [4]; [19]): 60; Plant response rating, Wheat ([5]; 125 g ai/ha): 40; Plant response rating, Wheat [5, 19]: 70; Plant response rating, Pigweed ([6]; 125 g ai/ha): 80; Plant response rating, Pigweed [6, 19]: 80; Plant response rating, Ryegrass, Italian ([7]; 125 g ai/ha): 30; Plant response rating, Ryegrass, Italian [7, 19]: 80; Plant response rating, Foxtail, Giant [8, 16]: 50; Foxtail, Giant plant response rating [8, 18]: 90; Plant response rating, Barnyardgrass [9, 16]: 20; Barnyardgrass plant response rating [9, 18]: 90; Plant response rating, Corn (corn (Zea mays); 125 g ai/ha): 0; Plant response rating, Corn (corn (Zea mays); [19]): 30; Plant response rating, Barnyardgrass ([10]; 125 g ai/ha): 70; Plant response rating, Barnyardgrass [10, 19]: 70; Plant response rating, Ryegrass, Italian [11, 16]: 90; Ryegrass, Italian plant response rating [11, 18]: 100; Plant response rating, Pigweed [12, 16]: 100; Pigweed plant response rating [12, 18]: 100; Plant response rating, Foxtail, Giant ([13]; 125 g ai/ha): 10; Plant response rating, Foxtail, Giant [13, 19]: 80; Plant response rating, Kochia (kochia (Bassia scoparia) [14]; [16]): 90; Kochia plant response rating (kochia (Bassia scoparia) [14]; [18]): 90; Plant response rating, Ragweed ([15]; 125 g ai/ha): 70; Plant response rating, Ragweed [15, 19]: 80

Q: What does the source list for `Cc1cc(C)c(C(=O)N2CCC(F)CC2)cc1NS(=O)(=O)C(F)(F)F` [Compound 8]?
A: Plant response rating, Ragweed ([1]; 1000 g ai/ha): 90; Plant response rating, Blackgrass [2, 20]: 70; Plant response rating, Galium [3, 20]: 20; Plant response rating, Kochia (kochia (Bassia scoparia) [4]; [20]): 80; Plant response rating, Wheat [5, 20]: 40; Plant response rating, Pigweed [6, 20]: 80; Plant response rating, Ryegrass, Italian [7, 20]: 80; Plant response rating, Foxtail, Giant ([8]; 1000 g ai/ha): 100; Plant response rating, Barnyardgrass ([9]; 1000 g ai/ha): 100; Plant response rating, Corn (corn (Zea mays); [20]): 30; Plant response rating, Barnyardgrass [10, 20]: 80; Plant response rating, Ryegrass, Italian ([11]; 1000 g ai/ha): 100; Plant response rating, Pigweed ([12]; 1000 g ai/ha): 100; Plant response rating, Foxtail, Giant [13, 20]: 90; Plant response rating, Kochia (kochia (Bassia scoparia) [14]; 1000 g ai/ha): 100; Plant response rating, Ragweed [15, 20]: 90

Q: How did the “Plant response rating, Ragweed” value ([1]; 1000 g ai/ha) turn out when `Cc1ccc(C(=O)N2CCC(C)CC2)cc1NS(=O)(=O)C(F)(F)F` [Compound 7] was run?
A: Its value is 80.

Q: What about the “Plant response rating, Blackgrass” value [2, 20] of the same compound?
A: Its value is 20.

Q: And the “Plant response rating, Galium” value [3, 20]?
A: The value was 40.

Q: What about the “Plant response rating, Kochia” value (kochia (Bassia scoparia) [4]; [20]) of the same compound?
A: Its value is 40.

Q: What about the “Plant response rating, Wheat” value [5, 20] of the same compound?
A: Its value is 0.

Q: What about the “Plant response rating, Pigweed” value [6, 20] of the same compound?
A: Its value is 20.

Q: And the “Plant response rating, Ryegrass, Italian” value [7, 20]?
A: The value was 90.

Q: What about the “Plant response rating, Foxtail, Giant” value ([8]; 1000 g ai/ha) of the same compound?
A: Its value is 90.

Q: And the “Plant response rating, Barnyardgrass” value ([9]; 1000 g ai/ha)?
A: Its value is 80.

Q: What about the “Plant response rating, Corn” value (corn (Zea mays); [20]) of the same compound?
A: Its value is 0.

Q: And the “Plant response rating, Barnyardgrass” value [10, 20]?
A: The value was 20.

Q: And the “Plant response rating, Ryegrass, Italian” value ([11]; 1000 g ai/ha)?
A: The value was 60.

Q: What about the “Plant response rating, Pigweed” value ([12]; 1000 g ai/ha) of the same compound?
A: The value was 80.

Q: And the “Plant response rating, Foxtail, Giant” value [13, 20]?
A: The value was 0.

Q: And the “Plant response rating, Kochia” value (kochia (Bassia scoparia) [14]; 1000 g ai/ha)?
A: The value was 30.

Q: And the “Plant response rating, Ragweed” value [15, 20]?
A: The value was 20.
